ChEMBL document CHEMBL1201862, “PubChem BioAssay data set” (2004)
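Dose response: 5 concentrations. Exposure: 48 h. Format: 96-well plates. Endpoint: linear interpolation; highest concentration if not reached. Abbreviation: GI50, concentration required for 50% inhibition of growth.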 Activity calls are given as the source filed them. Rule as the data show it: active = GI50 up to about 1.1 µM and inactive = higher.

What was measured:
Experiment in all cases: NCI anticancer screen, dose series, 48 h
[1] = system: 786-0
[2] = system: A498
[3] = system: A549
[4] = system: ACHN
[5] = system: CAKI-1
[6] = system: CCRF-CEM
[7] = system: COLO 205
[8] = system: DLD-1
[9] = system: DMS-114
[10] = system: DMS-273
[11] = system: EKVX
[12] = system: HCC 2998
[13] = system: HCT-116
[14] = system: HCT-15
[15] = system: HOP-18
[16] = system: HOP-62
[17] = system: HT-29
[18] = system: IGROV-1
[19] = system: K562
[20] = system: KM-20L2
[21] = system: KM12
[22] = system: LOX IMVI
[23] = system: M14
[24] = system: M19-MEL
[25] = system: MOLT-4
[26] = system: Malme-3M
[27] = system: NCI-H226
[28] = system: NCI-H23
[29] = system: NCI-H460
[30] = system: OVCAR-3
[31] = system: OVCAR-4
[32] = system: OVCAR-5
[33] = system: OVCAR-8
[34] = system: RPMI-8226
[35] = system: RXF 631
[36] = system: SF-268
[37] = system: SF-295
[38] = system: SF-539
[39] = system: SK-MEL-28
[40] = system: SK-MEL-2
[41] = system: SK-MEL-5
[42] = system: SK-OV-3
[43] = system: SN12C
[44] = system: SNB-19
[45] = system: SNB-75
[46] = system: SNB-78
[47] = system: SW-620
[48] = system: TK-10
[49] = system: U-251
[50] = system: UACC-257
[51] = system: UACC-62
[52] = system: UO-31
[53] = system: XF498
[54] = system: BT-549
[55] = system: DU-145
[56] = system: HL-60
[57] = system: HOP-92
[58] = system: Hs-578T
[59] = system: LXFL 529
[60] = system: MCF7
[61] = system: MDA-MB-231
[62] = system: MDA-MB-435
[63] = system: MDA-N
[64] = system: NCI-H522
[65] = system: NCI/ADR-RES
[66] = system: PC-3
[67] = system: RXF 393
[68] = system: SR
[69] = system: T47D

c1ccc(C(c2ccccc2)c2ccncc2)cc1
GI50 [1]: > 100 µM (inactive)
GI50 [2]: > 100 µM (inactive)
GI50 [3]: > 100 µM (inactive)
GI50 [4]: > 100 µM (inactive)
GI50 [5]: > 100 µM (inactive)
GI50 [6]: > 100 µM (inactive)
GI50 [7]: > 100 µM (inactive)
GI50 [8]: > 100 µM (inactive)
GI50 [9]: > 100 µM (inactive)
GI50 [10]: > 100 µM (inactive)
GI50 [11]: > 100 µM (inactive)
GI50 [12]: 61.7 µM (inactive)
GI50 [13]: > 100 µM (inactive)
GI50 [14]: > 100 µM
GI50 [15]: > 100 µM (inactive)
GI50 [16]: > 100 µM (inactive)
GI50 [17]: 75.9 µM (inactive)
GI50 [18]: > 100 µM (inactive)
GI50 [19]: > 100 µM (inactive)
GI50 [20]: > 100 µM (inactive)
GI50 [21]: > 100 µM (inactive)
GI50 [22]: > 100 µM (inactive)
GI50 [23]: > 100 µM (inactive)
GI50 [24]: > 100 µM (inactive)
GI50 [25]: > 100 µM (inactive)
GI50 [26]: > 100 µM (inactive)
GI50 [27]: > 100 µM (inactive)
GI50 [28]: > 100 µM (inactive)
GI50 [29]: > 100 µM (inactive)
GI50 [30]: > 100 µM (inactive)
GI50 [31]: > 100 µM (inactive)
GI50 [32]: > 100 µM (inactive)
GI50 [33]: > 100 µM (inactive)
GI50 [34]: > 100 µM (inactive)
GI50 [35]: > 100 µM (inactive)
GI50 [36]: > 100 µM (inactive)
GI50 [37]: > 100 µM (inactive)
GI50 [38]: > 100 µM (inactive)
GI50 [39]: > 100 µM (inactive)
GI50 [40]: > 100 µM (inactive)
GI50 [41]: > 100 µM (inactive)
GI50 [42]: > 100 µM (inactive)
GI50 [43]: > 100 µM (inactive)
GI50 [44]: > 100 µM (inactive)
GI50 [45]: 18 µM (inactive)
GI50 [46]: > 100 µM (inactive)
GI50 [47]: > 100 µM (inactive)
GI50 [48]: > 100 µM (inactive)
GI50 [49]: > 100 µM (inactive)
GI50 [50]: 61 µM (inactive)
GI50 [51]: > 100 µM (inactive)
GI50 [52]: 69.5 µM (inactive)
GI50 [53]: > 100 µM (inactive)

CCCN(CCCC(NC(C)=O)C(=O)NCc1ccccc1)C(=O)N(CCCl)N=O (stereo not given)
GI50 [1]: 0.638 µM (active)
GI50 [2]: 13.3 µM (inactive)
GI50 [3]: 5.83 µM (inactive)
GI50 [4]: 3.09 µM (inactive)
GI50 [54]: 19.2 µM (inactive)
GI50 [5]: 17.6 µM (inactive)
GI50 [6]: 6.87 µM (inactive)
GI50 [7]: 24.4 µM (inactive)
GI50 [8]: 14.5 µM (inactive)
GI50 [9]: 14.4 µM (inactive)
GI50 [10]: 4.52 µM (inactive)
GI50 [55]: > 100 µM (inactive)
GI50 [11]: 31.7 µM (inactive)
GI50 [12]: 4.4 µM (inactive)
GI50 [13]: 22.6 µM (inactive)
GI50 [14]: 15.5 µM
GI50 [56]: 3.97 µM (inactive)
GI50 [15]: 22.5 µM (inactive)
GI50 [16]: 2.73 µM (inactive)
GI50 [57]: 17.1 µM (inactive)
GI50 [17]: 30.5 µM (inactive)
GI50 [58]: > 100 µM (inactive)
GI50 [18]: 27 µM (inactive)
GI50 [19]: 16.9 µM (inactive)
GI50 [20]: 15.7 µM (inactive)
GI50 [21]: 21.1 µM (inactive)
GI50 [22]: 2.11 µM (inactive)
GI50 [59]: 18 µM (inactive)
GI50 [23]: 14.4 µM (inactive)
GI50 [24]: 12.2 µM (inactive)
GI50 [60]: > 100 µM (inactive)
GI50 [61]: > 100 µM (inactive)
GI50 [62]: > 100 µM (inactive)
GI50 [63]: > 100 µM (inactive)
GI50 [25]: 2.6 µM (inactive)
GI50 [26]: 22.4 µM (inactive)
GI50 [27]: 17.7 µM (inactive)
GI50 [28]: 8.75 µM (inactive)
GI50 [29]: 0.27 µM (active)
GI50 [64]: 20.7 µM (inactive)
GI50 [65]: > 100 µM (inactive)
GI50 [30]: 20.9 µM (inactive)
GI50 [31]: 37.9 µM (inactive)
GI50 [32]: 34.4 µM (inactive)
GI50 [33]: 10.4 µM (inactive)
GI50 [66]: > 100 µM (inactive)
GI50 [34]: 28.2 µM (inactive)
GI50 [67]: 17.8 µM (inactive)
GI50 [35]: 17.4 µM (inactive)
GI50 [36]: 1.42 µM (inactive)
GI50 [37]: 2.66 µM (inactive)
GI50 [38]: 0.977 µM (active)
GI50 [39]: 24.3 µM (inactive)
GI50 [40]: 26.9 µM (inactive)
GI50 [41]: 21.2 µM (inactive)
GI50 [42]: 25.7 µM (inactive)
GI50 [43]: 15.8 µM (inactive)
GI50 [44]: 5.13 µM (inactive)
GI50 [45]: 5.58 µM (inactive)
GI50 [46]: 15.4 µM (inactive)
GI50 [68]: 0.564 µM (active)
GI50 [47]: 7.4 µM (inactive)
GI50 [69]: > 100 µM (inactive)
GI50 [48]: 37.8 µM (inactive)
GI50 [49]: 3.53 µM (inactive)
GI50 [50]: 28.8 µM (inactive)
GI50 [51]: 1.04 µM (active)
GI50 [52]: 25.5 µM (inactive)
GI50 [53]: 9.89 µM (inactive)

CC(=O)N(/N=C\c1ccc([N+](=O)[O-])cc1)c1ccccc1
GI50 [1]: > 100 µM (inactive)
GI50 [2]: > 100 µM (inactive)
GI50 [3]: > 100 µM (inactive)
GI50 [4]: > 100 µM (inactive)
GI50 [5]: > 100 µM (inactive)
GI50 [6]: > 100 µM (inactive)
GI50 [7]: > 100 µM (inactive)
GI50 [8]: > 100 µM (inactive)
GI50 [9]: 99.8 µM (inactive)
GI50 [10]: > 100 µM (inactive)
GI50 [11]: > 100 µM (inactive)
GI50 [12]: > 100 µM (inactive)
GI50 [13]: > 100 µM (inactive)
GI50 [14]: > 100 µM
GI50 [15]: > 100 µM (inactive)
GI50 [16]: > 100 µM (inactive)
GI50 [57]: > 100 µM (inactive)
GI50 [17]: > 100 µM (inactive)
GI50 [18]: > 100 µM (inactive)
GI50 [19]: > 100 µM (inactive)
GI50 [20]: > 100 µM (inactive)
GI50 [21]: > 100 µM (inactive)
GI50 [22]: > 100 µM (inactive)
GI50 [23]: > 100 µM (inactive)
GI50 [24]: > 100 µM (inactive)
GI50 [26]: > 100 µM (inactive)
GI50 [27]: > 100 µM (inactive)
GI50 [28]: > 100 µM (inactive)
GI50 [29]: > 100 µM (inactive)
GI50 [30]: > 100 µM (inactive)
GI50 [31]: > 100 µM (inactive)
GI50 [32]: > 100 µM (inactive)
GI50 [33]: > 100 µM (inactive)
GI50 [34]: > 100 µM (inactive)
GI50 [35]: > 100 µM (inactive)
GI50 [36]: > 100 µM (inactive)
GI50 [37]: > 100 µM (inactive)
GI50 [38]: > 100 µM (inactive)
GI50 [39]: > 100 µM (inactive)
GI50 [40]: > 100 µM (inactive)
GI50 [41]: > 100 µM (inactive)
GI50 [42]: > 100 µM (inactive)
GI50 [43]: > 100 µM (inactive)
GI50 [44]: > 100 µM (inactive)
GI50 [45]: 48.3 µM (inactive)
GI50 [46]: > 100 µM (inactive)
GI50 [47]: > 100 µM (inactive)
GI50 [48]: > 100 µM (inactive)
GI50 [49]: > 100 µM (inactive)
GI50 [50]: > 100 µM (inactive)
GI50 [51]: > 100 µM (inactive)
GI50 [52]: 35.9 µM (inactive)
GI50 [53]: > 100 µM (inactive)
